Patent publication US10906878B2, “Kinase inhibitors for the treatment of disease” (Dana-Farber Cancer Institute, Inc., priority 2013, dated 2021)

What was measured:
Format in all cases: cell-based
EGFR L858R Ba/F3 cells = EGFR L858R Ba/F3 cells (Homo sapiens (Human), UniProt P00533, L858R); assay: Ba/F3 cell growth inhibition (MTS assay), EGFR L858R; details: for IC50: Assay 1, L858R, read-out: EGFR Ba/F3 cells IC 50 (nM) Assay 1 L858R
Excerpt: (§1) The specific cDNAs encoding the oncogenic alterations (EGFR: Del 19, L858R, L718Q, L844V, Del/T790M, L858R/T790M, Del 19/L718Q, Del 19/L844V, Del 19/T790M/L718Q and L858R/T790M/L718Q; FGFR: TEL-FGFR1, TEL-FGFR2, TEL-FGFR1 V561M, TEL-FGFR2 V561M; ALK: EML4-ALK; ROS1: CD74-ROS1) were cloned into the pDNA-Dual (BD Biosciences) vector using standard molecular biology techniques. Mutations were introduced using site-directed mutagenesis (Agilent) with mutant specific primers according to the manufacturer's instructions. All constructs were confirmed by DNA sequencing. The constructs were introduced into Ba/F3 cells using retroviral infection. Polyclonal cell lines were established by puromycin selection and subsequently cultured in the absence of interleukin-3 (IL-3). Uninfected Ba/F3 cells or cell lines expressing green fluorescent protein (GFP) were used as controls.
(§2) Growth and inhibition of growth was assessed by MTS assay. This assay, a colorimetric method for determining the number of viable cells, is based on the bioreduction of 3-(4,5-dimethylthiazol-2-yl)-5-(3-carboxymethoxyphenyl)-2-(4-sulfophenyl)-2H-tetrazolium (MTS) by cells to a formazan product that is soluble in cell culture medium, can be detected spectrophotometrically and was performed according to the manufacturer's recommended conditions. Ba/F3 cells were exposed to treatment for 72 hours and the number of cells used per experiment determined empirically to assure linear growth kinetics over that time period. All experimental points were set up in six to twelve wells and all experiments were repeated at least three times. […] The curves were fitted using a non-linear regression model with a sigmoidal dose response.

[1] = molecular target: EGFR L858R/T790M/L718Q Ba/F3 cells (Homo sapiens (Human), UniProt P00533, L718Q/L858R/T790M); assay: Ba/F3 cell growth inhibition (MTS assay), EGFR L858R/T790M/L718Q; details: for EGFR activity (% Control, 100 nM drug) L858R/T790M/L718Q: Table F; for IC50: Assay 1, T/L/L718Q, read-out: EGFR Ba/F3 cells IC 50 (nM) Assay 1 T/L/L718Q
Excerpt: as §1, §2

EGFR Del Ba/F3 cells = EGFR Del Ba/F3 cells (Homo sapiens, UniProt P00533, cells depend on it, form not given); assay: Ba/F3 cell growth inhibition (MTS assay), EGFR Del; details: for IC50: Assay 1, Del, read-out: EGFR Ba/F3 cells IC 50 (nM) Assay 1 Del
Excerpt: as §1, §2

[2] = molecular target: EGFR Del/T790M Ba/F3 cells (Homo sapiens, UniProt P00533, T790M, cells depend on it, form not given); assay: Ba/F3 cell growth inhibition (MTS assay), EGFR Del/T790M; details: for EGFR activity (% Control, 100 nM drug) DEL/T790M: Table F; for IC50: Assay 1, Del/T790M, read-out: EGFR Ba/F3 cells IC 50 (nM) Assay 1 Del/T790M; for EGFR activity (% Control, 100 nM drug) Del/T790M: Table G
Excerpt: as §1, §2

[3] = molecular target: EGFR L858R/T790M Ba/F3 cells (Homo sapiens (Human), UniProt P00533, L858R/T790M); assay: Ba/F3 cell growth inhibition (MTS assay), EGFR L858R/T790M; details: for IC50: Assay 1, L858R/T790M, read-out: EGFR Ba/F3 cells IC 50 (nM) Assay 1 L858R/T790M
Excerpt: as §1, §2

[4] = molecular target: EGFR L718Q/L858R Ba/F3 cells (Homo sapiens (Human), UniProt P00533, L718Q/L858R); assay: Ba/F3 cell growth inhibition (MTS assay), EGFR L858R/L718Q; details: for EGFR activity (% Control, 100 nM drug) L858R/L718Q: Table F; for IC50: Assay 1, L718Q/L858R, read-out: EGFR Ba/F3 cells IC 50 (nM) Assay 1 L718Q/L858R

Compound | EGFR activity (% Control, 100 nM drug) L858R (EGFR L858R Ba/F3 cells; Table F) | EGFR activity (% Control, 100 nM drug) L858R/T790M/L718Q [1] | EGFR activity (% Control, 100 nM drug) Del (EGFR Del Ba/F3 cells; Table F) | EGFR activity (% Control, 100 nM drug) DEL/T790M [2] | EGFR activity (% Control, 100 nM drug) L858R/T790M ([3]; Table F) | EGFR activity (% Control, 100 nM drug) L858R/L718Q [4] | EGFR activity (% Control, 100 nM drug) L858R (EGFR L858R Ba/F3 cells; Table G) | EGFR activity (% Control, 100 nM drug) Del (EGFR Del Ba/F3 cells; Table G) | EGFR activity (% Control, 100 nM drug) Del/T790M [2] | EGFR activity (% Control, 100 nM drug) L858R/T790M ([3]; Table G) | other results
C=CC(=O)Nc1cccc(Nc2cc(N(C)C(=O)Nc3ccc(F)c(Cl)c3)ncn2)c1 [Compound 19A] | 100 % Control | 99 % Control | 79 % Control | 71 % Control | 101 % Control | 74 % Control |  |  |  |  | 
C=CC(=O)Nc1cccc(Nc2cc(N(C)C(=O)NCc3ccccc3)ncn2)c1 [Compound 17A] | 2 % Control | 85 % Control | 28 % Control | 85 % Control | 52 % Control | 81 % Control |  |  |  |  | IC50 (EGFR L858R Ba/F3 cells): 7.62 nM; IC50 [1]: 2500 nM; IC50 (EGFR Del Ba/F3 cells): 63.9 nM; IC50 [2]: 682 nM; IC50 [3]: 275 nM; IC50 [4]: 1960 nM
C=CC(=O)N1CCC[C@@H]1C(=O)Nc1ccc(OC)c(Nc2cc(N(C)C(=O)NCc3ccccc3)ncn2)c1 [Compound 24A] |  |  |  |  |  |  | 84 % Control | 95 % Control | 101 % Control | 108 % Control | 
COc1ccc(NC(=O)/C=C/CN(C)C)cc1Nc1ncc2c(n1)N(C)C(=O)N(c1ccccc1)C2 [Compound 7A, (E)-4-(dimethylamino)-N-(4-methoxy-3-((8-methyl-7-oxo-6-phenyl-5,6,7,8-tetrahydropyrimido[4,5-d]pyrimidin-2-yl)amino)phenyl)but-2-enamide] | 5 % Control | 106 % Control | 35 % Control | 94 % Control | 102 % Control | 96 % Control |  |  |  |  | 
C=CC(=O)Nc1ccc(OC)c(Nc2cc(N(C)C(=O)NCc3ccccc3)ncn2)c1 [Compound 16A] | 117 % Control | 92 % Control | 78 % Control | 86 % Control | 71 % Control | 75 % Control |  |  |  |  | 
CN(C)C/C=C/C(=O)Nc1cccc(Nc2cc(N(C)C(=O)Nc3ccccc3)ncn2)c1 [Compound 21A] | 4 % Control | 102 % Control | 10 % Control | 107 % Control | 100 % Control | 94 % Control |  |  |  |  | 
C=CC(=O)N1CCC[C@H]1C(=O)Nc1ccc(OC)c(Nc2cc(N(C)C(=O)NCc3ccccc3)ncn2)c1 [Compound 23A] |  |  |  |  |  |  | 99 % Control | 106 % Control | 102 % Control | 111 % Control | 
COc1cc2ncnc(N(C)C(=O)Nc3ccccc3)c2cc1NC(=O)[C@@H]1CCCN1C(=O)CCl [Compound 28A] |  |  |  |  |  |  | 94 % Control | 102 % Control | 83 % Control | 97 % Control | 
C=CC(=O)N1CCC[C@H]1C(=O)Nc1cc2c(N(CCOC)C(=O)NCc3ccccc3)ncnc2cc1OC [Compound 31A] |  |  |  |  |  |  | 108 % Control | 111 % Control | 110 % Control | 112 % Control | 
C=CC(=O)Nc1ccc(OC)c(Nc2cc(N(C)C(=O)Nc3ccc(F)c(Cl)c3)ncn2)c1 [Compound 18A] | 1 % Control | 92 % Control | 30 % Control | 84 % Control | 85 % Control | 88 % Control |  |  |  |  | 
C=CC(=O)N1CCC[C@H]1C(=O)Nc1cc2c(N(C)C(=O)Nc3ccccc3)ncnc2cc1OC [Compound 27A] |  |  |  |  |  |  | 87 % Control | 95 % Control | 76 % Control | 102 % Control | 
C=CC(=O)Nc1cccc(Nc2cc(N(C(=O)Nc3ccccc3)c3ccc(N4CCN(C)CC4)cc3)ncn2)c1 [Compound 26A] |  |  |  |  |  |  | 11 % Control | 87 % Control | 91 % Control | 100 % Control | 
C=CC(=O)Nc1cccc(N(C(=O)Nc2ccc(F)c(Cl)c2)c2cc(Nc3ccc(N4CCN(C)CC4)cc3OC)ncn2)c1 [Compound 22A] | 3 % Control | 106 % Control | 3 % Control | 84 % Control | 4 % Control | 84 % Control |  |  |  |  | 
COc1ccc(NC(=O)/C=C/CN(C)C)cc1Nc1cc(N(C)C(=O)Nc2ccccc2)ncn1 [Compound 20A] | 2 % Control | 93 % Control | 2 % Control | 126 % Control | 26 % Control | 48 % Control |  |  |  |  | IC50 (EGFR L858R Ba/F3 cells): 0.994 nM; IC50 [1]: 917 nM; IC50 (EGFR Del Ba/F3 cells): 2.58 nM; IC50 [2]: 211 nM; IC50 [3]: 99.1 nM; IC50 [4]: 256 nM
C=CC(=O)Nc1cccc(N(C(=O)Nc2ccccc2)c2cc(NC)ncn2)c1 [Compound 14A] | 1 % Control | 87 % Control | 24 % Control | 98 % Control | 75 % Control | 76 % Control |  |  |  |  | 
C=CC(=O)N1CCC[C@H]1C(=O)Nc1cc2c(N(C)C(=O)NCc3ccccc3)ncnc2cc1OC [Compound 5A, (S)-1-acryloyl-N-(4-(3-benzyl-1-methylureido)-7-methoxyquinazolin-6-yl)pyrrolidine-2-carboxamide] |  |  |  |  |  |  | 107 % Control | 100 % Control | 110 % Control | 96 % Control | 
C=CC(=O)Nc1cccc(Nc2cc(N(C(=O)NCc3ccccc3)c3ccc(N4CCN(C)CC4)cc3)ncn2)c1 [Compound 30A] |  |  |  |  |  |  | 10 % Control | 94 % Control | 104 % Control | 103 % Control | 
C=CC(=O)N1CC[C@@H](CN(C(=O)Nc2ccccc2)c2cc(Nc3ccc(N4CCN(C)CC4)cc3OC)ncn2)C1 [Compound 32A] |  |  |  |  |  |  | 99 % Control | 104 % Control | 106 % Control | 110 % Control | 
C=CC(=O)N1CC[C@H](CN(C(=O)Nc2ccccc2)c2cc(Nc3ccc(N4CCN(C)CC4)cc3OC)ncn2)C1 [Compound 33A] |  |  |  |  |  |  | 101 % Control | 102 % Control | 109 % Control | 106 % Control | 
